We go through one compound from patent US20020049157A1, “Use of proteasome inhibitors for treating cancer, inflammation, autoimmune disease, graft rejection and septic shock” (priority 1998, published 2002).

For one assay, the system named is ICAM-1. Put plainly: ICAM-1 expression on 2C TCR transgenic lymph node T cells (flow cytometry). It counts as cell-based, mouse. Particulars: Con A plus 10 μM lactacystin; 24 h and 48 h. The method, then:
After 24 h and 48 h, the cells were examined for ICAM-1 expression by flow cytometry, using FITC-anti-ICAM-1/1B2-PE. Monoclonal Ab 1B2 recognize a clonotypic determinant on the TCR of the transgenic T cells which are largely CD8 positive (>75%).
Cell-cell interaction is essential in antigen presentation and in T cell's help to T and B cells. The adhesion molecules are necessary to establish the cell-cell interaction. Blocking the adhesion molecules ICAM-1 and LFA-1 is known to inhibit immune responses and to suppress graft rejection. […] Therefore, inhibition of the proteasome activity will be a useful way to control undesirable immune responses during graft rejection, autoimmune diseases, and inflammation.
Background: Flow cytometry measures light scatter and fluorescence of single cells or particles in a stream.

The next assay relates to Jurkat cells. The assay can be described thus: Respiration (O2 consumption) of Jurkat cells, oxygen electrode. Format: cell-based. The text has this:
The function of Complex I of digitonin (Dig)-permeated Jurkat cells was blocked by rotenone (Rot), and the respiration was resumed by adding succinate (Suc), which provides electrons to Complex II directly and thus bypasses Complex I. The maximal respiration was achieved by adding CCCP (carbonyl cyanide m-chlorophenylhydrazone), which uncouples the oxidation and phosphorylation. The respiration could be blocked by antimycin A (Ant), which inhibits […]. Curves 1 and 6 represent positive controls of rat kidney mitochondria. Curves 2 and 5 represent normals untreated Jurkat cells. Curves 3 and 4 represent Jurkat cells treated with lactacystin (6 μM) for 2 h and 4 h, respectively.
Complex III in the respiration chain was blocked at Complex III antimycin (Ant), and the electron flow was resumed by addiind ascorbate (Asc) and TMPD (tetramethyl-p-phenyl-enediamine).
The assay system is identical to that described in FIG. 16. Jurkat cells were treated with LAC for 4 h (curve 3). The decoupling reagent used in this experiment to achieve maximal respiration is FCCP (carbonylcyanide-p-trifluoromethoxyphenylhydrazone).
The Jurkat Cells (JC) (30×10^6/ml) or rat kidney proximal tubules mitochondria (RKM) (0.5 mg of protein/ml) were incubated in 1 ml measuring chamber at 37° C. in a respiration buffer containing 200 mM sucrose, 5 mM MgCl2, 5 mM KH2PO4, and 30 mM HEPES-Tris (pH 7.5). During respiration experiments following substrates and inhibitors were used: 0.005% Digitonine (Dig); 10 mM Succinate (Suc); 1 mM Ascorbate (Asc); 0.4 mM tetramethyl-p- phenylenediamine (TMPD); 1 μM CCCP, 1 μM FCCP; 0.1 μM Rotenone (Rot); 50 nM Antimycin A (Anti); 1 mM KCN; 100 μM Cytochrome C (Cyt C). The respiration rate of the Jurkat Cells and mitochondria was measured polarographically with a Clarke oxygen electrode (Yellow Springs Instruments, Yellow Springs, Ohio, U.S.A.) using 1 ml thermojacketed chamber. Oxygen concentration was calibrated with air-saturated buffer using Hypoxanthine—Xanthine Oxidase—Catalase system (“chemical zero”). Oxygen consumption was continuously recorded using a “MacLab/8” (Analog Digital Instruments, U.S.A.) connected to a Macintosh SE computer and the MacLab Chart v.3.3.4 software. Rates of oxygen consumption are expressed as ng-atoms of oxygen/min.

A further assay concerns CDK2. Put plainly: Immunoprecipitation kinase assay, CDK2. As to conditions: PHA-activated T cells; LAC 10 μM added once at 0 h; at 16 h and more so at 40 h. Format: cell-based, human. As for the experimental part:
(§1) Tonsillar T cells were activated with PHA (2 μg/ml) for a period as indicated in each graph. LAC (10 μM) was added once at 0 h. The cells were harvested at 16 h, 24 h, or 40 h as indicated. An equal amount of lysate protein ([…]) was precipitated with rabbit anti-CDK4, anti-CDK2 or anti-Cyclin E antisera (2.5 μg Ab/sample). The immune complexes were assayed for their kinase activities using histone H1 as a substrate. (A) CDK4 kinase activity. (B) CDK2 kinase activity. (C) Cyclin E-associated CDK activity. The membrane in (C) was subsequently hybridized with anti-Cyclin E (1 μg/ml) followed by ^125I-protein A for the evaluation of the protein level of Cyclin E.
Therefore, the proteasome activity during the early activation stage (0 h-16 h) is essential for the activation of the kinase at the G1 phase and early S phase. The unchanged CDK4 activity in the LAC-treated cells at 40 h served as an internal control for the repressed CDK2 activity and indicating the latter was not due to the viability problem.
Lymphocytes were lysed by a lysis buffer as used in the immunoblotting (Chen et al., 1996, supra), and cleared lysates were quantitated for their protein content. […] The proteins were then transferred to PVDF membranes and the signals were detected by autoradiography.

For a further assay, the system named is Cyclin E-associated CDK. Put plainly: Immunoprecipitation kinase assay, Cyclin E-associated CDK. Format: cell-based, human. As to conditions: PHA-activated T cells; LAC 10 μM added once at 0 h. As for the experimental part: as §1
Since at the late G1 phase Cyclin E is the predominant partner of CDK2 (Sherr, 1993, Cell 73:1059), we next examined the Cyclin E-associated CDK activity.
Lymphocytes were lysed by a lysis buffer as used in the immunoblotting (Chen et al., 1996, supra), and cleared lysates were quantitated for their protein content. For immunoprecipitation, 50 μl of rabbit antisera against CDK2, CDK4 or Cyclin E were added to the lysates equivalent to 20 or 40 μg protein depending on the experiment. […] The proteins were then transferred to PVDF membranes and the signals were detected by autoradiography.

In the case of `CC(=O)N[C@@H](CSC(=O)[C@]1([C@@H](O)C(C)C)NC(=O)[C@H](C)[C@@H]1O)C(=O)O` [LAC, lactacystin], the “upregulation of ICAM-1 on CD8 positive T cells” value in the assay with ICAM-1 is on record as “effectively block the upregulation of ICAM-1”. Moreover, the “respiration after Complex I blockage (rotenone) on adding succinate” value with Jurkat cells (LAC 6 μM for 4 h) is “could not be resumed by adding succinate”. Further, the “O2 consumption after Complex III (ascorbate and TMPD)” value in the assay with Jurkat cells (LAC for 4 h) is “could not be resumed by ascorbate and TMPD”. The “O2 consumption after the addition of ascorbate and TMPD” value with Jurkat cells (LAC for 4 h, FCCP as decoupling reagent) was “reduced augmentation of O2 consumption”. Also, in the assay on Jurkat cells (within 4 h), the “electron transport of the respiratory chain” value was “reduce the electron transport at the complex IV”. Moreover, the CDK2 kinase activity result with CDK2 is recorded as “significantly inhibited”. Further, the “Cyclin E-associated kinase activity” value with Cyclin E-associated CDK is “almost completely inhibited”.
